Experimental data taken from the supplement of paper PMC12317010.
Where a name gives a salt, the structure may show the parent alone.

Experiment: collision cross section in nitrogen (drift tube, single-field); higher = larger gas-phase ion size
[1] = ion type: [M+Na], ion source: ESI, ion mode: Positive
[2] = ion type: [M+H], ion source: APCI, ion mode: Positive
[3] = ion type: [M+H], ion source: ESI, ion mode: Positive
[4] = ion type: [M-H], ion source: ESI, ion mode: Negative
[5] = ion source: APCI, ion mode: Positive, ion type: [M]+ (permanent cation)
[6] = ion source: ESI, ion mode: Positive, ion type: [M]+ (permanent cation)
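Also: chemical standards at 10 µM analysed by drift tube IMS-QTOF MS in about 3.95 torr nitrogen, mean of duplicate injections differing ≤1%, mass error below 10 ppm.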

Row | Compound | collision cross section in nitrogen [1] [Å²] | collision cross section in nitrogen [2] [Å²] | collision cross section in nitrogen [3] [Å²] | collision cross section in nitrogen [4] [Å²] | other results
1 | C=C[C@@]1(C)CC(=O)[C@]2(O)[C@@]3(C)[C@@H](O)CCC(C)(C)[C@@H]3[C@H](O)[C@H](OC(C)=O)[C@@]2(C)O1 [Forskolin] | 194.3 | – | – | – | –
2 | CCOP(=O)(SC(C)CC)N1CCSC1=O (centres undefined) [Fosthiazate] | 168.2 | – | – | – | –
3 | c1coc(-c2nc3ccccc3[nH]2)c1 [Fuberidazole] | – | 136.1 | 136.8 | 138 | –
4 | COC(=O)C(C)N(C(=O)c1ccco1)c1c(C)cccc1C (centres undefined) [Furalaxyl] | 178 | 162.1 | 161.4 | – | –
5 | CCCCOC(=O)N(C)SN(C)C(=O)Oc1cccc2c1OC(C)(C)C2 [Furathiocarb] | 195 | 191.3 | 190.5 | – | –
6 | CN(C)c1ccc(C(=C2C=CC(=[N+](C)C)C=C2)c2ccc(N(C)C)cc2)cc1 [Gentian Violet] | – | – | – | – | collision cross section in nitrogen [5]: 205 Å²; collision cross section in nitrogen [6]: 205.8 Å²
7 | CC(=O)OC/C=C(\C)CCC=C(C)C [Geranyl acetate] | – | – | – | 151.5 | –
8 | CCCCCCCCCCCCCCCCCC(=O)OCC(O)CO (centres undefined) [Glycerol 1-monostearate] | 201.2 | – | – | – | –
9 | CCCCCCCC/C=C\CCCCCCCC(=O)OCC(O)CO (centres undefined) [Glyceryl monooleate] | 197.2 | – | – | – | –
10 | CCCCCC[C@@H](O)C/C=C\CCCCCCCC(=O)OCC(O)CO (some centres undefined) [Glyceryl monoricinoleate] | 201.9 | – | – | – | –
11 | C[N+](C)(C)CC1CO1 (centres undefined) [Glycidyl trimethylammonium chloride] | – | – | – | – | collision cross section in nitrogen [6]: 120.7 Å²
12 | CCCCCCCCCCCC(=O)N(C)CC(=O)O [Glycine, N-methyl-N-(1-oxododecyl)-, sodium salt] | 175.8 | – | – | 169.5 | –
13 | C[C@H](CCC(=O)NCC(=O)O)[C@H]1CC[C@H]2[C@@H]3[C@H](O)C[C@@H]4C[C@H](O)CC[C@]4(C)[C@H]3C[C@H](O)[C@]12C [Glycocholic acid] | 201.7 | – | – | 202.5 | –
14 | CC1(C)[C@@H](O[C@H]2O[C@H](C(=O)O)[C@@H](O)[C@H](O)[C@H]2O[C@@H]2O[C@H](C(=O)O)[C@@H](O)[C@H](O)[C@H]2O)CC[C@]2(C)[C@H]3C(=O)C=C4[C@@H]5C[C@@](C)(C(=O)O)CC[C@]5(C)CC[C@@]4(C)[C@]3(C)CC[C@@H]12 [Glycyrrhizin] | 296.2 | – | 288.9 | 281.7 | –
15 | CCCCCCC(CCCCCCCCCCC(=O)OCC(COC(C)=O)OC(C)=O)OC(C)=O (centres undefined) [Grinstad Soft-N-Safe] | 225.2 | – | – | – | –
16 | COC1=CC(=O)C[C@@H](C)[C@]12Oc1c(Cl)c(OC)cc(OC)c1C2=O [Griseofulvin] | 189.6 | 182 | 181.6 | – | –
17 | Nc1nc2[nH]cnc2c(=O)[nH]1 [Guanine] | – | – | 130.3 | – | –
18 | CC(C)(C)N(NC(=O)c1ccc(Cl)cc1)C(=O)c1ccccc1 [Halofenozide] | 188.3 | – | – | 178.2 | –
19 | CC(Oc1ccc(Oc2ncc(C(F)(F)F)cc2Cl)cc1)C(=O)O (centres undefined) [Haloxyfop] | – | – | 180 | 190 | –

Row | Compound | collision cross section in nitrogen [1] [Å²] | collision cross section in nitrogen [2] [Å²] | collision cross section in nitrogen [3] [Å²] | collision cross section in nitrogen [4] [Å²] | other results
20 | CCCCCCC(=O)O [Heptanoic acid] | – | – | – | 137.3 | –
21 | CCCCCCCOC(C)=O [Heptyl acetate] | – | – | – | 146.8 | –
22 | COCN(COC)c1nc(N(COC)COC)nc(N(COC)COC)n1 [Hexa(methoxymethyl)melamine] | 194.1 | – | – | – | –
23 | CCCCC(O)(Cn1cncn1)c1ccc(Cl)cc1Cl (centres undefined) [Hexaconazole] | 187 | 174.6 | 173.5 | – | –
24 | CCCCCCCCCCCCCCCC(=O)O [Hexadecanoic acid] | – | – | – | 169.2 | –
25 | CCCCCCCCCCCCCCCC[N+](C)(C)C [Hexadecyltrimethylammonium bromide] | – | – | – | – | collision cross section in nitrogen [5]: 193.1 Å²; collision cross section in nitrogen [6]: 195.1 Å²
26 | C=CC(=O)N1CN(C(=O)C=C)CN(C(=O)C=C)C1 [Hexahydro-1,3,5-tris(1-oxoallyl)-1,3,5-triazine] | 160.1 | – | – | – | –
27 | CN(C)P(=O)(N(C)C)N(C)C [Hexamethylphosphoramide] | 152.8 | 134.4 | 135.3 | – | –
28 | NNC(=O)CCCCC(=O)NN [Hexanedihydrazide] | 141.5 | – | – | 138.4 | –
29 | O=C(O)CCCCC(=O)O [Hexanedioic acid] | – | – | – | 127.9 | –
30 | CN(C)c1nc(=O)n(C2CCCCC2)c(=O)n1C [Hexazinone] | 176.3 | 163 | 162.8 | – | –
31 | CCCCCCOC(=O)CCC [Hexyl butyrate] | – | – | – | 149.7 | –
32 | CCCCCCOC(=O)CC [Hexyl propanoate] | – | – | – | 146.3 | –
33 | CC1(C)CN=C(NN=C(C=Cc2ccc(C(F)(F)F)cc2)C=Cc2ccc(C(F)(F)F)cc2)NC1 [Hydramethylnon] | 250.1 | 239.4 | 240.6 | 234.7 | collision cross section in nitrogen (ion type: [M+], ion source: APCI, ion mode: Positive): 226.3 Å²
34 | CC(C)(O)C(=O)Nc1ccc([N+](=O)[O-])c(C(F)(F)F)c1 [Hydroxyflutamide] | – | – | – | 157.4 | –
35 | O=S(O)CO [Hydroxymethanesulfinic acid monosodium salt dihydrate] | – | – | – | 112.7 | –
36 | O=P1(NCCCl)OCCCN1CCCl (centres undefined) [Ifosfamide] | 158.1 | 148.1 | 148.8 | – | –
37 | CCCCCCCCCc1ccc(OCCOCCO)cc1 [Igepal CO-210] | 191.3 | – | – | – | –

Further lines, with some results ahead:

Row | collision cross section in nitrogen [1] [Å²] | collision cross section in nitrogen [2] [Å²] | collision cross section in nitrogen [3] [Å²] | collision cross section in nitrogen [4] [Å²] | Compound | other results
38 | 247.6 | 243.5 | 242.9 | 246.5 | C[C@]12CC[C@@H]3c4ccc(O)cc4C[C@@H](CCCCCCCCCS(=O)CCCC(F)(F)C(F)(F)F)[C@H]3[C@@H]1CC[C@@H]2O (some centres undefined) [Fulvestrant] | –
39 | – | – | – | 150.8 | O=C1OCCN1N=Cc1ccc([N+](=O)[O-])o1 [Furazolidone] | –
40 | – | – | – | 173 | NS(=O)(=O)c1cc(C(=O)O)c(NCc2ccco2)cc1Cl [Furosemide] | –
41 | – | – | – | 146.5 | CCCOC(=O)c1cc(O)c(O)c(O)c1 [Gallic acid n-propyl ester] | –
42 | 171.3 | 160.3 | 160.3 | 161.6 | O=c1c(-c2ccc(O)cc2)coc2cc(O)cc(O)c12 [Genistein] | –
43 | – | – | – | 176.4 | C=C1C[C@]23C[C@@]1(O)CC[C@H]2[C@@]12C=C[C@H](O)[C@@](C)(C(=O)O1)[C@H]2[C@@H]3C(=O)O [Gibberellic acid] | –
44 | 217.6 | – | 206.6 | 213.2 | COc1ccc(Cl)cc1C(=O)NCCc1ccc(S(=O)(=O)NC(=O)NC2CCCCC2)cc1 [Glybenclamide] | –
45 | 147.2 | – | – | – | COc1ccccc1OCC(O)CO (centres undefined) [Guaifenesin] | –
46 | 177.5 | 171.3 | 171.1 | – | O=[N+]([O-])c1cc(N(CCO)CCO)ccc1NCCO [HC Blue 2] | –
47 | – | 141.6 | 142.2 | – | Nc1ccc(NCCO)c([N+](=O)[O-])c1 [HC Red 3] | –
48 | 251.8 | 249.1 | 249.1 | 250 | CCN(CC)C(=O)c1cc(S(=O)(=O)Cc2ccccc2)c(N2CCC(c3ccccc3)CC2)cc1N(CC)CCN(C)C [HMR1171 trifluoroacetate (1:1)] | –
49 | – | 167.8 | 167.9 | – | OC12N=C(c3ccccc3)SC1Cc1cc(Cl)ccc12 (centres undefined) [HMR1426] | –
50 | 200.2 | 195.1 | 195.1 | 190.2 | O=C(CCCN1CCC(O)(c2ccc(Cl)cc2)CC1)c1ccc(F)cc1 [Haloperidol] | –
51 | 186.4 | – | 185.1 | – | COC(=O)[C@@H](C)Oc1ccc(Oc2ncc(C(F)(F)F)cc2Cl)cc1 [Haloxyfop-P-methyl] | –
52 | 185.6 | – | 184.4 | – | COC(=O)C(C)Oc1ccc(Oc2ncc(C(F)(F)F)cc2Cl)cc1 (centres undefined) [Haloxyfop-methyl] | –
53 | – | – | – | 174.4 | Oc1c(Cl)cc(Cl)c(Cl)c1Cc1c(O)c(Cl)cc(Cl)c1Cl [Hexachlorophene] | –
54 | 189.8 | – | – | – | O=C(OCCCCCCOC(=O)c1ccccc1)c1ccccc1 [Hexane-1,6-diyl dibenzoate] | –
55 | – | – | – | 177.2 | CC[C@H](c1ccc(O)cc1)[C@@H](CC)c1ccc(O)cc1 [Hexestrol] | –
56 | – | – | – | 161.1 | CCCCCCOC(=O)c1ccc(O)cc1 [Hexylparaben] | –
57 | – | – | – | 139 | O=C(O)CCc1ccccc1 [Hydrocinnamic acid] | –
58 | 195.7 | 197.7 | 197.2 | – | OCCOCCN1CCN(C(c2ccccc2)c2ccc(Cl)cc2)CC1 (centres undefined) [Hydroxyzine hydrochloride] | –
59 | 166.5 | – | – | – | CCC(C)OC(=O)N1CCCCC1CCO (centres undefined) [Icaridin] | –
60 | 198.7 | 195.4 | 194.9 | 193.7 | CC(=O)S[C@H](C(=O)N[C@H]1Cc2ccccc2[C@H]2CCC[C@@H](C(=O)O)N2C1=O)C(C)C [Ilepatril] | –
